Measurements published in US11161839B2, “2-quinolone derived inhibitors of BCL6” (Cancer Research Technology Limited, priority 2017, dated 2021).

Tests used:
[1] = test system: SU-DHL-4 cells; assay: 14-day cell proliferation assay (CellTiter Glo); type: cell-based; conditions: Homo sapiens, SU-DHL4 cells, 14 days
Method: (§1) The volume of medium containing 2000 cells in the control well was calculated and this volume of cells was transferred from every well of the assay plates to the corresponding well of the fresh plates containing compound. After 14 days, CellTiter Glo reagent (Promega) was added to the medium in each well of the assay plate at a ratio of 1:2, mixed on a plate shaker, then incubated at room temperature for 10 minutes. Luminescence was measured using an Envision plate reader (Perkin Elmer) and the relative luminescence at each compound concentration, compared to DMSO alone, was calculated. IC50 were determined using a 4-parameter curve fit in Dotmatics (Bishops Stortford, UK).

[2] = molecular target: human BCL6 BTB domain (Trx-6xHis-BCL6) (Homo sapiens (Human), UniProt P41182); assay: HTRF in vitro assay (BCL6 BTB domain / BCOR-AF633 peptide); type: binding; conditions: further generated data (Table 1b), 1 nM Trx-6xHis-BCL6, 0.5 nM anti-6xHis-Terbium cryptate
Method: The % inhibition at each concentration was calculated by normalising FRET ratio to the appropriate high (DMSO with all reagents) and low (DMSO without BCL6) controls.

[3] = molecular target: BCL6 (Homo sapiens (Human), UniProt P41182); assay: assays described in the Examples section (not specified which); conditions: tested compounds outside desired/preferred activity
Method: DC50 values (compound concentration at which 50% of endogenous BCL6 protein is degraded) were determined in SUDHL-4 cells (American Type Culture Collection) in an immunofluorescence-based assay using an InCell2200 high content imaging system (GE Healthcare). Briefly, 40 μL of lymphoma suspension cells cultured in RPMI 1640-10% FBS (Sigma-Aldrich or PAN Biotech UK Ltd) were platted on fibronectin (Sigma catalogue F1141)-coated 384 well Cell Carrier Ultra plate (Perkin Elmer catalogue 6057300) at 1.2 104 cells/well. After 20 hours cell culture at 37° C./C02 incubator, compounds were dispensed in the cell culture plate using ECHO550 acoustic dispenser (Labcyte, Inc.), as 8 point-concentration response (ranging from 5 nM to 10 μM) in 0.67% final DMSO concentration. Cells were incubated with compound for 2 hours at 37° C./C02 incubator followed by fixation in 4.5% formaldehyde (37% formaldehyde solution, Sigma catalogue F8775) at room temperature for 15 min. After fixing, cells were washed in 1×TBS (Tris Buffer Saline) using a Power Washer 384 (Tecan Group Ltd). Blocking and cell permeabilisation were performed by incubating the fixed cells for 1 hour at room temperature in 1×TBS, 5% BSA, 1% Triton X100, followed by three washes on PW384 plate washer. Primary and secondary antibodies were prepared in 1×TBS, 1% BSA, 0.2% Triton X100. BCL6 expression was detected by incubating the cells for 1 h30 with BCL6 rabbit polyclonal antibody (Sigma Catalogue HPA004899) at 1:250, 0.8 μg/ml, followed by 1 hour in chicken anti-Rabbit Alexa 488 conjugated antibody (Life Technology) at 1:500. After incubation in each antibody, cells were washes four times in 1×TBS-0.05% tween on PW384 plate washer. Cells were finally incubated for 60 min with nuclear staining RedDot2 dye (Biotium) at 0.5× the stock concentration in 1×TBS. BCL6 expression in the absence or presence of compound was detected on InCell2200 with 20× objective and quantified on InCell Analyser 3.7.2 workstation (GE Healthcare). The % response at each concentration was calculated by normalising BCL6 expression in the presence of compound to the appropriate high (DMSO) and low (DMSO with 7 μM CCT369260) controls.
as §1

[4] = molecular target: BCL6-NCOR2(SMRT) corepressor protein-protein interaction (Homo sapiens (Human), UniProt P41182); assay: NanoBRET cell assay in transfected HEK293T cells; type: cell-based; conditions: further generated data (Table 2b); HEK293T cells, 6 hr; read-out: NanoBRET cell pIC50 (converted)
Excerpt: A cellular nano-Bioluminescence Resonance Energy Transfer (nanoBRET) assay (Promega NanoBRET Nano-Glo Detection System, catalogue number N1662) was used to detect inhibition of the BCL6-NCOR2(SMRT) corepressor protein-protein interaction. DNA encoding full length BCL6 and NCOR2 were inserted into pFC32K.NanoLuc and pFC14K.HaloTag vectors (Promega) to produce C-terminal tagged fusion proteins BCL6-nanoLuc and NCOR2-HaloTag, respectively. […] Frozen transfected HEK293T cells were thawed, centrifuged and freezing medium was replaced by phenol red-free OptiMEM+4% FBS (Life Technology). […] Cells were incubated for 6 hr at 37° C./5% CO2 then NanoBRET furimazine substrate (Promega) was added to give a final concentration of 10 μM. After a short centrifugation the plates were read on an Envision (Perkin Elmer) plate reader equipped with a LUM/D600 Dual mirror, Lum 450/40 nm bandpass and D605 nm longpass filters, with a 0.2 sec reading to determine the BRET ratio. The % inhibition at each test concentration was calculated by normalising the BRET ratio to the appropriate high and low controls.

| SMILES | GI50 [1] [nM] | IC50 ([2]; read-out: HTRF pIC50 (converted)) [nM] | activity in the assays described in the Examples section [3] | HTRF pIC50 [2] | IC50 [4] [nM] |
| --- | --- | --- | --- | --- | --- |
| CC(Nc1nc(=O)n(C)c2ccc(Nc3nc(N4C[C@@H](C)C(F)(F)[C@@H](C)C4)ncc3Cl)cc12)c1ncccn1 (mixture of isomers) [Example 12h, rac-6-((5-chloro-2-((3R,5S)-4,4-difluoro-3,5-dimethylpiperidin-1-yl)pyrimidin-4-yl)amino)-1-methyl-4-((1-(pyrimidin-2-yl)ethyl)amino)quinazolin-2(1H)-one] | 340 | 251 | – | – | – |
| CNC(=O)CNc1cc(=O)[nH]c2ccc(Nc3ccnc(Cl)c3C#N)cc12 [2-((6-((2-chloro-3-cyanopyridin-4-yl)amino)-2-oxo-1,2-dihydroquinolin-4-yl)amino)-N-methylacetamide] | – | – | did not exhibit the desired activity | – | – |
| Cn1c(=O)cc(NC2CCCNC2=O)c2cc(Nc3ccnc(Cl)c3C#N)ccc21 (stereo not drawn) [2-chloro-4-((1-methyl-2-oxo-4-((2-oxopiperidin-3-yl)amino)-1,2-dihydroquinolin-6-yl)amino)nicotinonitrile] | – | – | did not exhibit the desired activity | – | – |
| CN1CCC(Nc2cc(=O)n(C)c3ccc(Nc4ccnc(Cl)c4C#N)cc23)C1=O (stereo not drawn) [2-chloro-4-((1-methyl-4-((1-methyl-2-oxopyrrolidin-3-yl)amino)-2-oxo-1,2-dihydroquinolin-6-yl)amino)nicotinonitrile] | – | – | not to exhibit the preferred activity | – | – |
| CC(Nc1cc(=O)[nH]c2ccc(Nc3ccnc(Cl)c3C#N)cc12)c1cnn(C)c1 (stereo not drawn) [2-chloro-4-((4-((1-(1-methyl-1H-pyrazol-4-yl)ethyl)amino)-2-oxo-1,2-dihydroquinolin-6-yl)amino)nicotinonitrile] | – | – | did not exhibit the desired activity | – | – |
| CC(CN(C)C)Nc1cc(=O)n(C)c2ccc(Nc3ccnc(Cl)c3C#N)cc12 (stereo not drawn) [2-chloro-4-((4-((1-(dimethylamino)propan-2-yl)amino)-1-methyl-2-oxo-1,2-dihydroquinolin-6-yl)amino)nicotinonitrile] | – | – | did not exhibit the desired activity | – | – |
| CCNc1cc(=O)n(C)c2ccc(Nc3ccnc(Cl)c3C#N)nc12 [2-chloro-4-((8-(ethylamino)-5-methyl-6-oxo-5,6-dihydro-1,5-naphthyridin-2-yl)amino)nicotinonitrile] | – | – | not to exhibit the preferred activity | – | – |
| Cn1c(=O)cc(NCc2ncccn2)c2cc(Nc3ccnc(Cl)c3C#N)ccc21 [2-chloro-4-[[1-methyl-2-oxo-4-(pyrimidin-2-ylmethylamino)-6-quinolyl]amino]pyridine-3-carbonitrile] | – | – | not to exhibit the preferred activity | – | – |
| CC(Nc1cc(=O)n(C)c2ccc(Nc3nc(N4C[C@H](C)C[C@H](C)C4)nc(C(F)(F)F)c3Cl)cc12)c1ncccn1 (stereo partly drawn) [6-((5-chloro-2-((3S,5R)-3,5-dimethylpiperidin-1-yl)-6-(trifluoromethyl)pyrimidin-4-yl)amino)-1-methyl-4-((1-(pyrimidin-2-yl)ethyl)amino)quinolin-2(1H)-one] | – | – | not to exhibit the preferred activity | – | – |
| Cn1c(=O)cc(NC(C)(C)c2ncccn2)c2cc(Nc3ccnc(Cl)c3Cl)ccc21 [Example 6b, 6-((2,3-dichloropyridin-4-yl)amino)-1-methyl-4-((2-(pyrimidin-2-yl)propan-2-yl)amino)quinolin-2(1H)-one] | 2130 | – | – | 6.81 | 1380 |
| Cn1c(=O)cc(NC(C)(C)c2ncccn2)c2cc(Nc3cc(C(=O)N4CC(C(F)(F)F)C4)nc(Cl)c3C#N)ccc21 [Example 8d, 2-chloro-4-((1-methyl-2-oxo-4-((2-(pyrimidin-2-yl)propan-2-yl)amino)-1,2-dihydroquinolin-6-yl)amino)-6-(3-(trifluoromethyl)azetidine-1-carbonyl)nicotinonitrile] | 450 | – | – | 7.50 | 240 |
| CC(Nc1cc(=O)n(C)c2ccc(Nc3ccnc(Cl)c3C#N)cc12)c1ncc(N2C[C@@H](C)O[C@@H](C)C2)cn1 (stereo partly drawn) [Example 10b, 2-chloro-4-((4-((1-(5-((2S,6R)-2,6-dimethylmorpholino)pyrimidin-2-yl)ethyl)amino)-1-methyl-2-oxo-1,2-dihydroquinolin-6-yl)amino)nicotinonitrile] | 290 | – | – | 7.39 | 490 |
| CC(Nc1cc(=O)n(C)c2ccc(Nc3ccnc(Cl)c3C#N)cc12)c1ncc(-c2cnn(C)c2)cn1 (stereo not drawn) [Example 10c, 2-chloro-4-((1-methyl-4-((1-(5-(1-methyl-1H-pyrazol-4-yl)pyrimidin-2-yl)ethyl)amino)-2-oxo-1,2-dihydroquinolin-6-yl)amino)nicotinonitrile] | 460 | – | – | 7.45 | 490 |
| CC(Nc1cc(=O)n(C)c2ccc(Nc3ccnc(Cl)c3C#N)cc12)c1ncc(N2CCOC(C(F)(F)F)C2)cn1 (stereo not drawn) [Example 10d, 2-chloro-4-((1-methyl-2-oxo-4-((1-(5-(2-(trifluoromethyl)morpholino)pyrimidin-2-yl)ethyl)amino)-1,2-dihydroquinolin-6-yl)amino)nicotinonitrile] | 1480 | – | – | 7.33 | 589 |
| CC(Nc1cc(=O)n(C)c2ccc(Nc3ccnc(Cl)c3C#N)cc12)c1ncc(C2CC2)cn1 (stereo not drawn) [Example 10e, 2-chloro-4-((4-((1-(5-cyclopropylpyrimidin-2-yl)ethyl)amino)-1-methyl-2-oxo-1,2-dihydroquinolin-6-yl)amino)nicotinonitrile] | 1720 | – | – | – | – |
| CC(Nc1cc(=O)n(C)c2ccc(Nc3ccnc(Cl)c3C#N)cc12)c1ncc(C2CCOCC2)cn1 (stereo not drawn) [Example 10w, 2-chloro-4-[[1-methyl-2-oxo-4-[1-(5-tetrahydropyran-4-ylpyrimidin-2-yl)ethylamino]-6-quinolyl]amino]pyridine-3-carbonitrile] | 1340 | – | – | 7.58 | 912 |
| Cc1cc(C)n(-c2ncc(Cl)c(Nc3ccc4c(c3)c(N[C@H](C)C3CC3)cc(=O)n4C)n2)n1 [Example 14c, (R)-6-((5-chloro-2-(3,5-dimethyl-1H-pyrazol-1-yl)pyrimidin-4-yl)amino)-4-((1-cyclopropylethyl)amino)-1-methylquinolin-2(1H)-one] | 760 | – | – | 6.54 | 891 |
| C[C@@H]1CN(c2ncc(Cl)c(Nc3ccc4c(c3)c(NC(C)(C)c3ncccn3)nc(=O)n4C)n2)C[C@H](C)C1(F)F [Example 25a, 6-((5-chloro-2-((3R,5S)-4,4-difluoro-3,5-dimethylpiperidin-1-yl)pyrimidin-4-yl)amino)-1-methyl-4-((2-(pyrimidin-2-yl)propan-2-yl)amino)quinazolin-2(1H)-one] | 110 | – | – | 6.73 | – |
| CC(Nc1nc(=O)n(C)c2ccc(Nc3nc(N4C[C@@H](C)O[C@@H](C)C4)ncc3Cl)cc12)c1ncccn1 (stereo partly drawn) [Example 26e, 6-[[5-chloro-2-[(2R,6S)-2,6-dimethylmorpholin-4-yl]pyrimidin-4-yl]amino)-1-methyl-4-(1-pyrimidin-2-ylethylamino)quinazolin-2-one] | – | – | – | 7.03 | 2880 |
| C[C@@H]1CN(c2ncc(Cl)c(Nc3ccc4c(c3)c(NC(C)(C)c3ncccn3)nc(=O)n4C)n2)C[C@H](C)O1 [Example 26f, 6-[[5-chloro-2-[(2R,6S)-2,6-dimethylmorpholin-4-yl]pyrimidin-4-yl]amino-1-methyl-4-[(1-methyl-1-pyrimidin-2-yl)ethyl)amino]quinazolin-2-one:formic acid (1:1)] | 440 | – | – | 6.99 | 676 |
